pIC50: −log10 of the molar value. Calls of active or inactive are those of the source. The calls are words filed in the database; no cut-off is given here. Where only a bound is given, the exact number is not on record here.

Consider 14 molecules from ChEMBL document CHEMBL5046289, “Targeting the S2 Subsite Enables the Structure-Based Discovery of Novel Highly Selective Factor XIa Inhibitors” (J Med Chem, 2022).

For data set [1], the species on record is Homo sapiens. Briefly: Selectivity index, ratio of IC50 for plasma kallikrein (unknown origin) to IC50 for coagulation factor XIa (unknown origin).
The target in a further data set is Plasma kallikrein (Homo sapiens, UniProt P03952). Description: Inhibition of plasma kallikrein (unknown origin) assessed as chromogenic substrate hydrolysis using CS-31(02) as substrate incubated for 1 hr by spectrophotometer based microplate reader method.
Data set [2] concerns the target T1, Coagulation factor XI (Homo sapiens, UniProt P03951). The conditions noted are these: dose 50.0 nM, time 1.0 hrs.
For data set [3], the target named is T1, Coagulation factor XI. Briefly: Inhibition of coagulation factor XIa (unknown origin) assessed as chromogenic substrate hydrolysis using CS-21(66) as substrate incubated for 1 hr by spectrophotometer based microplate reader method.
A short description of data set [4]: Toxicity in C57BL/6J mouse assessed as bleeding risk at 20 mg/kg, iv measured after 15 mins by tail transection assay. It is filed as organism-based. Particulars: in vivo, 0.25 h.
A short description of data set [5]: Toxicity in C57BL/6J mouse assessed as bleeding risk at 35 mg/kg, iv measured after 15 mins by tail transection assay. It is filed as organism-based. The conditions noted are these: in vivo, 0.25 h.
The nature of data set [6]: Toxicity in C57BL/6J mouse assessed as bleeding risk at 60 to 100 mg/kg, iv measured after 15 mins by tail transection assay. Particulars: in vivo, 0.25 h, dose 60-100 mg/kg. It is filed as organism-based.
Data set [7] addresses T2, Prothrombin (Homo sapiens, UniProt P00734). Description: Inhibition of thrombin (unknown origin) assessed as chromogenic substrate using CS-10(38) as substrate incubated for 1 hr by spectrophotometer based microplate reader method.
Data set [8] deals with Coagulation factor IX (Homo sapiens) (UniProt P00740). Description: Inhibition of coagulation factor IXa (unknown origin) assessed as chromogenic substrate using ADG299 as substrate at 1 mM incubated for 1 hr by spectrophotometer based microplate reader method.
The species named for data set [9] is Homo sapiens. Briefly: Selectivity index, ratio of IC50 for coagulation factor Xa (unknown origin) to IC50 for coagulation factor XIa (unknown origin).
Data set [10] addresses T2, Prothrombin. Briefly: Inhibition of thrombin (unknown origin) assessed as chromogenic substrate using CS-10(38) as substrate at 1 mM incubated for 1 hr by spectrophotometer based microplate reader method.
The species entered for data set [11] is Homo sapiens. Briefly: Selectivity index, ratio of IC50 for coagulation factor IXa (unknown origin) to IC50 for coagulation factor XIa (unknown origin).
The species entered for data set [12] is Homo sapiens. Description: Selectivity index, ratio of IC50 for thrombin (unknown origin) to IC50 for coagulation factor XIa (unknown origin).
The target of data set [13] is T3, Coagulation factor XII (Homo sapiens) (UniProt P00748).
T3 sequence (whole entry): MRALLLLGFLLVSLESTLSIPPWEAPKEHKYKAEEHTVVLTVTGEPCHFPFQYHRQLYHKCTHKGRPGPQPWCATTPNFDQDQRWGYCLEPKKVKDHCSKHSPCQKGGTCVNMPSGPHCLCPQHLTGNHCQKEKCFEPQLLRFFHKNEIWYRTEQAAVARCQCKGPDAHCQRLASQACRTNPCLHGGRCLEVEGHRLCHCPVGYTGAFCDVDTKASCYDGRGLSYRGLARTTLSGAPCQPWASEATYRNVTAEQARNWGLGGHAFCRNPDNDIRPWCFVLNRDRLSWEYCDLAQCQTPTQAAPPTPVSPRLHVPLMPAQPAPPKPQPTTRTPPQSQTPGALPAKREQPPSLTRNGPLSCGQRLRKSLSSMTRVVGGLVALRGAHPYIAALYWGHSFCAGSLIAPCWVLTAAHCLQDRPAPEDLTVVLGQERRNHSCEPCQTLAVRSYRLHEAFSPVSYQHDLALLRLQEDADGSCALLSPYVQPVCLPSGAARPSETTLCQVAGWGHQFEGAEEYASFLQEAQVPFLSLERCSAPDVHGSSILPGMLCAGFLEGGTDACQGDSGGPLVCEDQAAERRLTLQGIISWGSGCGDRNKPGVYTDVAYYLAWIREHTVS
Description: Inhibition of coagulation factor XIIa (unknown origin) assessed as chromogenic substrate using TH5253 as substrate at 1 mM incubated for 1 hr by spectrophotometer based microplate reader method.

Data set [14] concerns the target T4, Coagulation factor VII (Homo sapiens) (UniProt P08709).
T4 sequence (whole entry): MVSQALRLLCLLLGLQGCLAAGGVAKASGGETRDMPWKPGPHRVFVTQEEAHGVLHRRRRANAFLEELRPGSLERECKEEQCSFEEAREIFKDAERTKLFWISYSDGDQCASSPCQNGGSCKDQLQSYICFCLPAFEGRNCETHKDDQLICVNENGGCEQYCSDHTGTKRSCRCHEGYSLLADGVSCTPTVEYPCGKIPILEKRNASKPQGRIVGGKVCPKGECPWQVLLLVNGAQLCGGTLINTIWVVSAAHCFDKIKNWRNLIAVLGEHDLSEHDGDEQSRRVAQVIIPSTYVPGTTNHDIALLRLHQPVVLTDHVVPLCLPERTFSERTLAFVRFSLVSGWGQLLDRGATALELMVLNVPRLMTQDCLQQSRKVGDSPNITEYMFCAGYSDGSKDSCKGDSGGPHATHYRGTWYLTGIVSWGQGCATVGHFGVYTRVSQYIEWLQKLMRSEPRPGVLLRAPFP
Description: Inhibition of coagulation factor VIIa (unknown origin) assessed as chromogenic substrate using chromozyme t-PA as substrate at 1 mM incubated for 1 hr by spectrophotometer based microplate reader method.

For data set [15], the species on record is Homo sapiens. Briefly: Selectivity index, ratio of IC50 for coagulation factor VIIa (unknown origin) to IC50 for coagulation factor XIa (unknown origin).
Data set [16] is filed under the species Homo sapiens. Description: Selectivity index, ratio of IC50 for trypsin (unknown origin) to IC50 for coagulation factor XIa (unknown origin).
For data set [17], the species on record is Homo sapiens. Description: Selectivity index, ratio of IC50 for coagulation factor XIIa (unknown origin) to IC50 for coagulation factor XIa (unknown origin).
Data set [18] concerns the target Serine protease 1 (Homo sapiens) (UniProt P07477). Briefly: Inhibition of trypsin (unknown origin) assessed as chromogenic substrate using CS-11(22) as substrate at 1 mM incubated for 1 hr by spectrophotometer based microplate reader method.
Another data set addresses Coagulation factor X (Homo sapiens, UniProt P00742). Description: Inhibition of coagulation factor Xa (unknown origin) assessed as chromogenic substrate using CS-11(22) as substrate incubated for 1 hr by spectrophotometer based microplate reader method.

T1 sequence (P03951 19-387 limits assumed): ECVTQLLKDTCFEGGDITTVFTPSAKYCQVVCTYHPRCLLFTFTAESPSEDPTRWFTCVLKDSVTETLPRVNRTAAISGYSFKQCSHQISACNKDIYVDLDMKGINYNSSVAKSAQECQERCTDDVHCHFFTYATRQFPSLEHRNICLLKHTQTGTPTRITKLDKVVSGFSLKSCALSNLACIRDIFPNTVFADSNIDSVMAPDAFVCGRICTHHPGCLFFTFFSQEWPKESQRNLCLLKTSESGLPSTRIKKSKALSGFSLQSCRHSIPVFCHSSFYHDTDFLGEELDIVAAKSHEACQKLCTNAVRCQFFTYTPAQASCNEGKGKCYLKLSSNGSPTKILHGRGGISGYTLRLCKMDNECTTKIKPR
T1 sequence (P03951 388-625 limits assumed): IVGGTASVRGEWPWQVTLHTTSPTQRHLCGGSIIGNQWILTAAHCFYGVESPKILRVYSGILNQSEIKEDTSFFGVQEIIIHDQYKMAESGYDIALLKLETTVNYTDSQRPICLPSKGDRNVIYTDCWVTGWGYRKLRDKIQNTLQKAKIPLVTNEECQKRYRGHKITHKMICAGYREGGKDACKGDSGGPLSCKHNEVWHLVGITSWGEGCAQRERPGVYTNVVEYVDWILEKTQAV
Plasma kallikrein, sequence (P03952 20-390 limits assumed): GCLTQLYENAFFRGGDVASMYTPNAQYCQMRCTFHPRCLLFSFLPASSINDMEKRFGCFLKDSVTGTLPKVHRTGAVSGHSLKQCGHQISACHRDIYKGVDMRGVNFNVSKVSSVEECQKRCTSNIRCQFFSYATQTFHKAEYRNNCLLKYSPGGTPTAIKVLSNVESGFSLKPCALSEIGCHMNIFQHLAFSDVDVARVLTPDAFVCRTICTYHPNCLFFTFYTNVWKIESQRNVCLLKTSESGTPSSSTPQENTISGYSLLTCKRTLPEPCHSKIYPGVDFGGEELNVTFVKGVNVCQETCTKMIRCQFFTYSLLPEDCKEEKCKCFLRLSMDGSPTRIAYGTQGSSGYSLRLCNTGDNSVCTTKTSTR
Plasma kallikrein, sequence (P03952 391-638 limits assumed): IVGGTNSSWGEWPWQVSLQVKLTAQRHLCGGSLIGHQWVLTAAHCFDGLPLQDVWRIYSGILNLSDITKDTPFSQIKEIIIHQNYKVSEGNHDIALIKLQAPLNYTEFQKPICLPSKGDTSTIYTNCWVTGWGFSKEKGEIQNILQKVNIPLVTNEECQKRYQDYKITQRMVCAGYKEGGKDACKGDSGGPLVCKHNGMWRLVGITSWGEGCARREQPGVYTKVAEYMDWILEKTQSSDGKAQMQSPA
Serine protease 1 (Homo sapiens), sequence (P07477 whole entry): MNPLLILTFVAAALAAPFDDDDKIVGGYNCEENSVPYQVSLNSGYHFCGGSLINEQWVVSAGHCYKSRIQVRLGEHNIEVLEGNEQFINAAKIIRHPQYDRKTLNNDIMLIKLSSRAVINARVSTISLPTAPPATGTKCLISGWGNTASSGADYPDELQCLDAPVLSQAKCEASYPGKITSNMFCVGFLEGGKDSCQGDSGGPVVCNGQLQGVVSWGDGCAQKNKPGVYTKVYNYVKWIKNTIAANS
Coagulation factor X, sequence (P00742 41-179 limits assumed): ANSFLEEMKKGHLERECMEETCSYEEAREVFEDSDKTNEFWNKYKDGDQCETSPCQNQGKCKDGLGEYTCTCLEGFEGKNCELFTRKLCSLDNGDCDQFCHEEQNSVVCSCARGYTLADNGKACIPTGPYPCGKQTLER
Coagulation factor X, sequence (P00742 235-488 limits assumed): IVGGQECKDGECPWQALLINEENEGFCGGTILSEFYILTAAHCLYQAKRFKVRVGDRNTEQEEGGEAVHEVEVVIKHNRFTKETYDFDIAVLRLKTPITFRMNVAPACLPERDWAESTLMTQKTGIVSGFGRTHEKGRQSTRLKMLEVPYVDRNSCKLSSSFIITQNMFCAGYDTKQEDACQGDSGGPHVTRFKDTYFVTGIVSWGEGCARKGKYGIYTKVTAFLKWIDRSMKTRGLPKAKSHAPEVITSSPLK
Coagulation factor IX (Homo sapiens), sequence (P00740 47-191 limits assumed): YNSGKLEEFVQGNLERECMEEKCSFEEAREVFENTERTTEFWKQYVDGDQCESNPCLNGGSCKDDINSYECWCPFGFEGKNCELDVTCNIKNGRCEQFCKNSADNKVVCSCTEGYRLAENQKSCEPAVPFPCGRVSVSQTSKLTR
Coagulation factor IX (Homo sapiens), sequence (P00740 227-461 limits assumed): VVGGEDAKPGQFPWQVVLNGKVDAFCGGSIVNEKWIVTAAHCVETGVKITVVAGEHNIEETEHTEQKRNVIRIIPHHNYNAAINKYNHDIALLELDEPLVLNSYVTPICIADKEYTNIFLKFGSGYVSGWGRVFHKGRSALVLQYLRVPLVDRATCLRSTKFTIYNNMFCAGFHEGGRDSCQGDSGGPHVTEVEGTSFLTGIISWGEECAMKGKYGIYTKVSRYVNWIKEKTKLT

The pIC50 is −log10 of the IC50, conventionally taken in molar units. What is called inhibition is how much of the control response was suppressed. Regarding `O=C(/C=C/c1cc(Cl)ccc1-n1cnnn1)N[C@@H](CCC(=O)N1CCN(CC2CC2)CC1)C(=O)Nc1ccc(C(=O)O)cc1`, in the data set filed under Homo sapiens [1], the Ratio IC50 was found to be 42. In addition, at Plasma kallikrein, the pIC50 is 5.51. For the same molecule, on Coagulation factor XI [2], the inhibition was determined as 41.7%.
For `O=C(/C=C/c1cc(Cl)ccc1-n1cnnn1)N[C@@H](CC(=O)N1CCN(CCO)CC1)C(=O)Nc1ccc(C(=O)O)cc1`, in the data set listed under Homo sapiens [1], the Ratio IC50 amounted to 295. Further, the figures for the pIC50 on Coagulation factor XI [3] and on Plasma kallikrein were 7.94 and 5.47, respectively. Further, the inhibition at Coagulation factor XI [2] came out at 60.2%.
As for `O=C(/C=C/c1cc(Cl)ccc1-n1cnnn1)N[C@@H](Cc1ccccc1)C(=O)Nc1ccc(C(=O)O)cc1`, the Activity result is “Non-Toxic” in [4], “Non-Toxic” in data set [5] and “Toxic” in data set [6].
Turning to `Cc1ccc(CN2CCN(C(=O)C[C@H](NC(=O)/C=C/c3cc(Cl)ccc3-n3cnnn3)C(=O)Nc3ccc(C(=O)O)cc3)CC2)cc1`, in the data set filed under Homo sapiens [1], the Ratio IC50 turned out to be 45. Also, the pIC50 on Coagulation factor XI [3] is 7.58; on Plasma kallikrein, 5.92. The inhibition against Coagulation factor XI [2] came out at 43.5%.
In the same order, the values of `O=C(/C=C/c1cc(Cl)ccc1-n1cnnn1)N[C@@H](CCC(=O)N1CCSCC1)C(=O)Nc1ccc(C(=O)O)cc1` are 50, 6.88, 5.17 and 21.9%.
Consider `CC(C)N1CCN(C(=O)C[C@H](NC(=O)/C=C/c2cc(Cl)ccc2-n2cnnn2)C(=O)Nc2ccc(C(=O)O)cc2)CC1`, for which the Ratio IC50 in the data set filed under Homo sapiens [1] turned out to be 16. Moreover, the pIC50 was 7.51 at Coagulation factor XI [3] and 6.31 at Plasma kallikrein. At Coagulation factor XI [2], this molecule gave an inhibition of 44%.
In the same order, the values of `O=C(/C=C/c1cc(Cl)ccc1-n1cnnn1)N[C@@H](CC(=O)N1CCN(Cc2ccccc2)CC1)C(=O)Nc1ccc(C(=O)O)cc1` are 35, 7.52, 5.97 and 53.3%.
With `O=C(/C=C/c1cc(Cl)ccc1-n1cnnn1)N[C@@H](CC(=O)N1CCN(CC2CC2)CC1)C(=O)Nc1ccc(C(=O)O)cc1`, in the data set listed under Homo sapiens [1], the Ratio IC50 worked out at 77. Also, the figures for the pIC50 on Coagulation factor XI [3] and on Plasma kallikrein were 8.11 and 6.22, respectively. This molecule returned an inhibition at Coagulation factor XI [2] of 65.7%.
As for `O=C(/C=C/c1cc(Cl)ccc1-n1cnnn1)N[C@@H](CC(=O)N1CCSCC1)C(=O)Nc1ccc(C(=O)O)cc1`, the inhibition result (on Prothrombin [7]; in [8]; at Prothrombin [10]; in [13]; in [14]; in [18]) was “inactive” in each case. Also, the Ratio IC50 is 756 in the data set listed under Homo sapiens [1]; more than 5000 in the data set filed under Homo sapiens [9]; more than 5000 in the data set filed under Homo sapiens [11]; more than 5000 in the data set listed under Homo sapiens [12]; more than 5000 in the data set filed under Homo sapiens [15]; more than 5000 in the data set listed under Homo sapiens [16]. The Ratio IC50 in the data set filed under Homo sapiens [17] is more than 5000. Further, the pIC50 is 7.73 on Coagulation factor XI [3], 4.85 at Plasma kallikrein and 3.01 on Coagulation factor X. Besides, the inhibition against Coagulation factor XI [2] is 52.3%.
As for `CCCCN1CCN(C(=O)CC[C@H](NC(=O)/C=C/c2cc(Cl)ccc2-n2cnnn2)C(=O)Nc2ccc(C(=O)O)cc2)CC1`, the Ratio IC50 in the data set listed under Homo sapiens [1] amounted to 30. For the same molecule, the pIC50 at Plasma kallikrein was 5.57. On Coagulation factor XI [2], the inhibition was 39.3%.
On to `O=C(/C=C/c1cc(Cl)ccc1-n1cnnn1)N[C@@H](CC(=O)N1CCCN(CC2CC2)CC1)C(=O)Nc1ccc(C(=O)O)cc1`, for which the Ratio IC50 in the data set filed under Homo sapiens [1] amounted to 21. For the same molecule, the pIC50 is 7.17 on Coagulation factor XI [3] and 5.85 on Plasma kallikrein. The inhibition on Coagulation factor XI [2] came out at 34.7%.
With `CCCCN1CCN(C(=O)C[C@H](NC(=O)/C=C/c2cc(Cl)ccc2-n2cnnn2)C(=O)Nc2ccc(C(=O)O)cc2)CC1`, the values for the pIC50 on Coagulation factor XI [3] and on Plasma kallikrein were 8.11 and 6.29, respectively. This molecule also registered an inhibition at Coagulation factor XI [2] of 51.5%.
Take `CC(=O)N1CCN(C(=O)C[C@H](NC(=O)/C=C/c2cc(Cl)ccc2-n2cnnn2)C(=O)Nc2ccc(C(=O)O)cc2)CC1`: the Ratio IC50 in the data set listed under Homo sapiens [1] was 226. Further, the pIC50 on Coagulation factor XI [3] is 7.12; at Plasma kallikrein it was 4.76. On Coagulation factor XI [2], this molecule displayed an inhibition of 23.2%.
With `CCN1CCN(C(=O)C[C@H](NC(=O)/C=C/c2cc(Cl)ccc2-n2cnnn2)C(=O)Nc2ccc(C(=O)O)cc2)CC1`, the Ratio IC50 in the data set filed under Homo sapiens [1] was 106. Moreover, the pIC50 at Coagulation factor XI [3] is 7.59; at Plasma kallikrein, 5.57. In addition, on Coagulation factor XI [2], the inhibition is 45.5%.
